The source of these data is US5854240A, “Methylene blue for the treatment or prophylaxis of encephalopathy caused by ifosfamide” (Newcastle University Ventures Limited, priority 1993, dated 1998).

For one series, the system named is plasma amine oxidase. Briefly: Inhibition of plasma amine oxidase (2-chlorethylamine oxidation to chloracetaldehyde, GC). The series is classed as biochemical. The following applies: methylene blue 50 μM; 2-chlorethylamine 100 μg/ml; human or bovine plasma, 36° C., 1 hour. The procedure: Human or bovine plasma (2.0 ml) containing 2-chlorethylamine (100 μg/ml) was incubated in a shaking water bath at 36° C. for 1 hour. Aliquots (5 μl) were directly injected in to a Tenax packed gas chromatographic column maintained at 120° C. in a Perkin Elmer 3920B gas chromatograph. The product of 2-chlorethylamine oxidation by plasma amine oxidase, 2-chloracetaldehyde, was eluted at 9 minutes retention time. External calibration curves were used to determine concentrations of resulting chloracetaldehyde. […] The methylene blue is thus able to reduce the formation of chloracetaldehyde from 2-chlorethylamine by the plasma to 20% of that observed in the absence of methylene blue.

Series [1] is described as follows: Prophylaxis of ifosfamide encephalopathy with methylene blue in patients. It is filed as in vivo, human. The procedure:
(§1) After three weeks from the end of the first cycle, the patient who was the subject of Example 1 again was given the same chemotherapeutic regime, except that this time they received 50 mg oral capsules of methylene blue prophylactically three times a day for the full course of treatment.
With the following treatment, they received four 50 mg doses of oral methylene blue. Their cytotoxic chemotherapy comprised three 3.2 g doses of ifosfamide (6 g/m^2 total dose) split over 3 days. The ifosfamide was administered as a continuous infusion with mesna. They also received 50 mg/m^2 adriamycin in two separate doses on days 2 and 3. Additionally,they received pyritinol (200 mg) twice per day on each day of the four day treatment.
(§2) A patient was diagnosed with non small cell lung cancer. They later developed brain, lung and mediastinal and bone metastases. The course of treatment included surgery, irradiation of the brain and chemotherapy. Dosage amounts for chemotherapy were as follows: ifosfamide (1 g/m^2) given intravenously for days 1-3; mesna 60% of intravenous ifosfamide dosage plus 800 mg orally twice daily for days 1-3; VP-16 (100 mg) given orally for days 1-8 and methylene blue (50 mg) was administered orally as a loading dose on day 1, with 3×50 mg administered orally on days 1-4.
(§3) They received six cycles of ifosfamide treatment using the identical dosage requirements as in Example 4.
(§4) A patient was diagnosed with non small cell lung cancer with extensive mediastinal lymphnode metastases. They were originally prescribed a course of cisplatinum, VP-16 and velbe. […] Oral ifosfamide, VP-16, and methylene blue was then ordered, using the same dosage requirements as described in Example 4 above.
A patient with non small cell lung cancer with involvment of the thoracic wall and retroperitoneal disease began one cycle of ifosfamide/methylene blue chemotherapy.
(§5) A patient was diagnosed with extensive small cell lung cancer with pleural effusion. Patient was prescribed ifosfamide/Vp-16/methylene blue treatment.
(§6) At the request of the inventors, an independent clinical analysis was performed at the Northern Centre for Cancer Treatment, Newcastle Upon Tyne, United Kingdom, on a patient using a combintation of ifosfamide and methylene blue. A patient was diagnosed with adenocarcinoma of the oesophagus. They began chemotherapeutic treatment and was administered ifosfamide, Mitomycin C, and cisplatin. […] The patient eventually recovered. Upon administration of a third cycle of treatment, the patient was also given a prophylactic dosage of methylene blue.

A short description of series [2]: Therapeutic rescue of ifosfamide encephalopathy with methylene blue in a patient. The following applies: Example 1. It is filed as in vivo, human. The procedure:
(§7) A patient diagnosed with advanced metastatic osteosarcoma began a five day chemotherapy regime. Treatment consisted of a total dosage of 12 g/m^2 ifosfamide with 80% (by weight, based on the weight of ifosfamide) mesna and adriamycin (65 mg/m^2) divided into two doses. They also received ZOFRAN™ brand ondansetron (antiemetic), 8 mg, by intravenous injection and 200 mg pyritinol three times per day orally. All parenteral medicaments were given in a total of 2 liters 5% glucose solution.
50 mg methylene blue, formulated at 2% w/v in water for injections, was administered by slow intravenous injection.
About 4 hours later, the 50 mg methylene blue dose was repeated to consolidate the earlier treatment.

Series [3] in a line: Urinary excretion of pyritinol and its metabolites in patients. The series is classed as in vivo, human. From the text: It is believed that pyritinol elevates intracellular thiol concentrations thereby detoxifying the chloroethyl metabolites formed by ifosfamide. Pyritinol is metabolised by reduction of its centralised disulfide bond, presumably by glutathione reductase or a similar enzyme using GSH as its cofactor. Pyritinol is also known to be metabolised by S-methylation and S-oxidation into the following metabolites: [drawing 12] These metabolites are the excretable forms of pyritinol in urine. In patients not receiving ifosfamide treatment, virtually 100% of pyritinol will be excreted in its metabolised form into the urine. […] As was previously mentioned, without GSH as a cofactor, glutathione reductase is unable to reduce pyritinol into its metabolised form. It is therefore a further aspect of this invention to use the excretion of unmetabolised pyritinol as a biochemical marker for the onset of encephalopathy upon administration of ifosfamide.

Series [4] deals with non small cell lung cancer. Briefly: Tumour response to chemotherapy, non small cell lung cancer patients. It is filed as in vivo, human. To be noted: Example 4; ifosfamide, VP-16, methylene blue; four cycles. On the procedure: as §2, §4
Series [5] can be described thus: Nitrobenzyl pyridine (NBP) test of urine for alkylating metabolites of ifosfamide. It is filed as in vivo, human.
The conditions of series [6]: intravenous ifosfamide; Martindale, 28th Edition, 1982; cited from earlier work.
Series [7] in a line: GCMS analysis of urine of patient receiving ifosfamide and methylene blue. It is filed as in vivo, human. The procedure:
100 ml of urine from a patient having had received methylene blue (300 mg/day) and ifosfamide (3 mg/kg daily) was analysed. The urine was refluxed for 30 minutes with 2M hydrochloric acid in ethanol (50 ml). After sufficient heating, 50 mls each of H2 O and […] hexane were added, the mixture shaken. The organic phase was then reduced to dryness in vacuo on a rotary evaporator. The dry residue was reconstituted in 1M hexane (10 ml) and 1 μl aliquots were submitted to gas chromatography-mass spectrometry analysis (GCMS). A 16 meter OV-17 capillary column was used with a temperature programme set for 40° C. for 1 minute, 5° C. per minute gradient to 250° C. and 250° C. for 10 minutes. Electron impact mass spectra were obtained on the resulting chromatographic peaks of interest (See A, B, and C of FIG. 1). These peaks were analysed through a Fisons Autospec Q MASS LIB GCMS computer library of mass spectra developed by the Department of Organic Chemistry, University of Berne, Switzerland of known organic compounds (FIGS. 2-4).

Series [8] can be described thus: CNS toxicity/encephalopathy in patients on ifosfamide without methylene blue. It is filed as in vivo, human. The procedure:
as §7
(§8) In 1990, a patient with metastatic leiomyosarcoma was treated for lung metastases with ifosfamide, adriamycin and dacarbazine. They had three cycles of therapy at the time.
(§9) In the second and third cycles, their dose of ifosfamide was 2 g/m^2 for three days.
as §6

The test system of a further series is metastatic osteosarcoma. Briefly: Tumour response to chemotherapy, osteosarcoma patient. The series is classed as in vivo, human. The following applies: Example 2; ifosfamide/adriamycin chemotherapy with methylene blue prophylaxis. On the procedure:
as §7, §1

The test system of the next series is small cell lung cancer. In words: Tumour response to chemotherapy, small cell lung cancer patients. The series is classed as in vivo, human.
Source text: as §3, §5

Series [9] relates to metastatic leiomyosarcoma. Briefly: Tumour response to chemotherapy, leiomyosarcoma patient. The series is classed as in vivo, human. The following applies: Example 3; 1990, ifosfamide, adriamycin and dacarbazine, three cycles. The procedure: as §8, §9
Setting [10] is: Example 3, ifosfamide + methylene blue, first cycle.
[11] abbreviates: Example 5, ifosfamide as in Example 4, six cycles.

“And” between values parts separate entries of the source, which are not always exact repeats. Identical values can stand only once. “Also recorded” adds a separate entry of the source.

For `CN(C)c1ccc2nc3ccc(N(C)C)cc3[s+]c2c1.[Cl-]` [methylene blue, 3,7-bis(dimethylamino)phenothiazin-5-ium chloride], the “formation of chloracetaldehyde from 2-chlorethylamine by the plasma, relative to that in absence of methylene blue” value in the series with plasma amine oxidase is 20%. In addition, the “inhibition of plasma amine oxidase by methylene blue” value in the series on plasma amine oxidase is 80%. The “disturbed nights during treatment” value in [1] (Example 2, 50 mg oral capsules three times a day prophylactically) is “no disturbed nights”. The “symptoms of encephalopathy during prophylactic treatment” value in [1] (Example 3, four 50 mg oral doses, ifosfamide 6 g/m^2 total over 3 days, mesna, adriamycin, pyritinol, first cycle) is given as “no symptoms of encephalopathy were recorded during treatment”. Moreover, in series [1] (setting [10]), the episodes of vomiting result is “one”. Further, the malaise entry in [1] (setting [10]) is “no malaise”. Also, the “signs of encephalopathy during prophylactic treatment” value is listed as “No signs of encephalopathy after four cycles” in series [1] (Example 4, 50 mg oral loading dose day 1, 3×50 mg oral days 1-4, four cycles); “no signs of encephalopathy” in series [1] (Example 5, dosage as in Example 4, six cycles); “Absolutely no signs of encephalopathy” in series [1] (Example 6, oral ifosfamide, VP-16 and methylene blue, dosage as in Example 4, six cycles); “no further signs of encephalopathy” in series [1] (Example 9, prophylactic methylene blue in third cycle, ifosfamide, Mitomycin C, cisplatin). For the same compound, in [1] (Example 7, dosage as in Example 4, one cycle), the “CNS toxicity during prophylactic treatment” value is reported as “No CNS toxicity was exhibited”. The “symptoms associated with encephalopathy during prophylactic treatment” value in series [1] (Example 8, dosage as in Examples 4-7, six cycles) is recorded as “never developed the symptoms associated with encephalopathy”. In addition, the “patient's condition during prophylactic treatment” value in [1] (Example 9, third cycle) is “remained conscious and alert throughout treatment”. Besides, the “symptoms of encephalopathy next day” value in series [2] (50 mg dose repeated about 4 hours later, next day) is on record as “no signs of confusion or other symptoms of encephalopathy”. The “malaise and nausea after methylene blue” value in [2] (50 mg slow intravenous injection, after 1 hour) was “The malaise and nausea which they had previously experienced were gone”. Besides, in series [2] (50 mg slow intravenous injection, after 1 hour, continued ifosfamide infusion), the “patient's condition after methylene blue” value was “much calmer, coherent and able to articulate the fearful nature of their hallucinations”. For the same compound, the “sleep/condition after repeated dose” value in series [2] (second 50 mg dose, that night and next day) is “slept well and was much better the next day”.

Consider `Cc1ncc(CSSCc2cnc(C)c(O)c2CO)c(CO)c1O` [pyritinol], for which, in [3] (ifosfamide plus methylene blue, leucomethylene blue or similar compound), the “form of pyritinol excreted in urine upon addition of methylene blue” value is given as “metabolised forms of pyritinol will subsequently be excreted in the urine”. For the same compound, the “form of pyritinol excreted in urine upon ifosfamide” value in [3] (upon administration of ifosfamide) is “solely in its unmetabolised non-reduced form”.

In the case of `O=P1(NCCCl)OCCCN1CCCl` (stereo not drawn) [ifosfamide, N,3-bis(2-chloroethyl)tetrahydro-2H-1,3,2-oxazaphosphorin-2-amine 2-oxide], the outcome in [4] is listed as “died 6 months later due to tumour progression”. In series [5] (Example 1, first cycle), the “NBP test of urine for alkylating metabolites of ifosfamide” value is recorded as “positive”. Also, the “NBP test of urine for alkylating metabolites” value in series [5] (Example 2, second cycle, with methylene blue) is “present”. Besides, the “patients experiencing CNS side effects, especially confusion and lethargy” value in series [6] is on record as “about 10%”. The “urinary metabolites identified by GCMS” value in series [7] (Example 10, methylene blue 300 mg/day and ifosfamide 3 mg/kg daily, urine refluxed with HCl in ethanol) was 2,2,2-trichlorethanal and 3-chloroproprionic acid ethyl ester and trichloracetic acid ethyl ester. Further, the “novel urinary metabolites among patients treated with ifosfamide and methylene blue” value in series [7] (patients treated with both ifosfamide and methylene blue) is 2,2,2-trichlorethanol and trichloracetic acid and 3-chlorproprionic acid. Besides, the “signs of encephalopathy on ifosfamide” value in series [8] (Example 1, 12 g/m^2 total ifosfamide, mesna, adriamycin, day three and next morning, before methylene blue) was “displayed signs of encephalopathy-type hallucinations; also recorded: still drowsy, disorientated and confused”. Besides, the encephalopathy on ifosfamide entry in [8] (Example 3, 1990, first cycle, ifosfamide, adriamycin and dacarbazine) was “mild encephalopatic signs (such as confusion and amnesia) short of psychosis”; in [8] (Example 3, 1990, second cycle, ifosfamide 2 g/m^2 for three days), “psychotic and somnolent”; in [8] (Example 3, 1990, third cycle, ifosfamide 2 g/m^2 for three days) it was “severely psychotic and had hallucinations which continued not only after the end of the cycle but also after discharge from hospital”; in series [8] (Example 9, ifosfamide, Mitomycin C and cisplatin, following second cycle), “developed ifosfamide encephalopathy, becoming drowsy and confused”. The “lung metastases (lung scan)” value in the series on metastatic osteosarcoma is recorded as “lung metastases were almost gone”. Moreover, in the series with small cell lung cancer (setting [11]), the “Lambert/Eaton Syndrome” value is “rapidly improved”. Moreover, the remission result is “good partial remission” with small cell lung cancer (setting [11]); “partial remission of the lung, lymphnode and liver metastases” with small cell lung cancer (Example 8, ifosfamide/Vp-16/methylene blue, after six cycles); “partial remission in the primary and lymphnode metastases” in the series on small cell lung cancer (Example 8, ifosfamide/Vp-16/methylene blue, after three cycles); “complete remission of the lung metastases” in series [9].
